Test results taken from PubChem BioAssay AID248 (DTP/NCI, 2004).
Several values for one entry are separate records, joined by “and”; a condition that tells them apart may be missing. Equal entries are not always repeated. Inconclusive results and toxic doses are left out. Cut-off read from the data, not from the text of the source: active = T/C of 150% or more; inactive = T/C below 125%.

Test system: L1210 leukemia ip in BDF1 mice, survival T/C
Experiment: NCI In Vivo Anticancer Drug Screen. Data for tumor model L1210 Leukemia (intraperitoneal) in B6D2F1 (BDF1) mice
Settings: endpoint: mean survival time, higher = longer survival
How it was run: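 Tumor cells were implanted, animals were treated, and survival was followed. The result divides the treated measurement by the vehicle-control measurement.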

[1] = dose: 50.0 mg/kg/injection, schedule: Q01DX001 (ip), vehicle: carboxymethylcellulose (CMC)
[2] = dose: 100.0 mg/kg/injection, schedule: Q01DX001 (ip), vehicle: carboxymethylcellulose (CMC)
[3] = dose: 200.0 mg/kg/injection, schedule: Q01DX001 (ip), vehicle: carboxymethylcellulose (CMC)
[4] = dose: 100.0 mg/kg/injection, schedule: Q04DX003 (ip), vehicle: Klucel (hydroxypropylcellulose) (HPC)
[5] = dose: 200.0 mg/kg/injection, schedule: Q04DX003 (ip), vehicle: Klucel (hydroxypropylcellulose) (HPC)
[6] = dose: 100.0 mg/kg/injection, schedule: Q01DX001 (ip), vehicle: saline
[7] = dose: 200.0 mg/kg/injection, schedule: Q01DX001 (ip), vehicle: saline
[8] = dose: 25.0 mg/kg/injection, schedule: Q01DX009 (ip), vehicle: saline with Tween-80
[9] = dose: 50.0 mg/kg/injection, schedule: Q01DX009 (ip), vehicle: saline with Tween-80
[10] = dose: 100.0 mg/kg/injection, schedule: Q01DX009 (ip), vehicle: saline with Tween-80
[11] = dose: 100.0 mg/kg/injection, schedule: Q04DX003 (ip), vehicle: saline
[12] = dose: 100.0 mg/kg/injection, schedule: Q01DX009 (ip), vehicle: Klucel (hydroxypropylcellulose) (HPC)
[13] = dose: 200.0 mg/kg/injection, schedule: Q01DX009 (ip), vehicle: Klucel (hydroxypropylcellulose) (HPC)

Measured: T/C

O=[N+]([O-])CCCl
inactive: dose: 2.5 mg/kg/injection, schedule: Q04DX003 (ip), vehicle: Klucel (hydroxypropylcellulose) (HPC) 104 % of control | dose: 5.0 mg/kg/injection, schedule: Q01DX009 (ip), vehicle: saline 105 % of control | dose: 5.0 mg/kg/injection, schedule: Q04DX003 (ip), vehicle: Klucel (hydroxypropylcellulose) (HPC) 103 % of control | dose: 10.0 mg/kg/injection, schedule: Q01DX009 (ip), vehicle: saline 106 % of control | dose: 10.0 mg/kg/injection, schedule: Q04DX003 (ip), vehicle: Klucel (hydroxypropylcellulose) (HPC) 95 % of control | dose: 20.0 mg/kg/injection, schedule: Q01DX009 (ip), vehicle: saline 117 % of control | dose: 20.0 mg/kg/injection, schedule: Q04DX003 (ip), vehicle: Klucel (hydroxypropylcellulose) (HPC) 89 % of control

O=P(O)(O)c1ccccc1
inactive: [1] 96 % of control | [2] 107 % of control | [3] 98 % of control

Nc1ncnc2c1c(-c1ncn[nH]1)cn2C1OC(CO)C(O)C1O (stereo not drawn)
inactive: dose: 0.09 mg/kg/injection, schedule: Q01DX009 (ip), vehicle: saline 119 % of control | dose: 0.19 mg/kg/injection, schedule: Q01DX009 (ip), vehicle: saline 119 % of control | dose: 0.39 mg/kg/injection, schedule: Q01DX005 (ip), vehicle: saline 119 % of control

NC(=O)NCCc1ccccc1
inactive: [4] 102 % of control | [5] 97 % of control | dose: 400.0 mg/kg/injection, schedule: Q04DX003 (ip), vehicle: Klucel (hydroxypropylcellulose) (HPC) 102 % of control

CC[Si](C)(C)N1CC1
inactive: dose: 12.5 mg/kg/injection, schedule: Q01DX001 (ip), vehicle: carboxymethylcellulose (CMC) 106 % of control | dose: 25.0 mg/kg/injection, schedule: Q01DX001 (ip), vehicle: carboxymethylcellulose (CMC) 101 % of control | dose: 50.0 mg/kg/injection, schedule: Q04DX003 (ip), vehicle: carboxymethylcellulose (CMC) 94 % of control | dose: 100.0 mg/kg/injection, schedule: Q04DX003 (ip), vehicle: carboxymethylcellulose (CMC) 101 % of control | dose: 200.0 mg/kg/injection, schedule: Q04DX003 (ip), vehicle: carboxymethylcellulose (CMC) 101 % of control

CCCCCCCCCCCCC1C2CCCCC2C2CCCCC12 (stereo not drawn)
inactive: [6] 92 % of control | [7] 92 % of control | dose: 400.0 mg/kg/injection, schedule: Q01DX001 (ip), vehicle: saline 92 % of control

O=C(COc1ccccc1)N/N=C/c1cccc([N+](=O)[O-])c1
inactive: [8] 92 % of control | [9] 86 % of control | [10] 86 % of control

NC(=S)c1n[nH]nc1N
inactive: dose: 50.0 mg/kg/injection, schedule: Q01DX001 (ip), vehicle: saline 104 % of control | [6] 100 % of control | [7] 100 % of control

Cc1ccc(C(O)(c2ccccc2)c2ccccc2C(=O)Nc2ccccc2)cc1 (stereo not drawn)
inactive: [10] 95 % of control | dose: 200.0 mg/kg/injection, schedule: Q01DX009 (ip), vehicle: saline with Tween-80 90 % of control | dose: 400.0 mg/kg/injection, schedule: Q01DX009 (ip), vehicle: saline with Tween-80 92 % of control

Cc1cc([N+](=O)[O-])c(C)c([N+](=O)[O-])c1Cl
inactive: dose: 100.0 mg/kg/injection, schedule: Q01DX001 (ip), vehicle: acetone 101 % of control | dose: 100.0 mg/kg/injection, schedule: Q01DX009 (ip), vehicle: saline 90 % of control | [11] 95 % of control | dose: 200.0 mg/kg/injection, schedule: Q01DX001 (ip), vehicle: acetone 97 % of control | dose: 200.0 mg/kg/injection, schedule: Q01DX009 (ip), vehicle: saline 95 % of control | dose: 200.0 mg/kg/injection, schedule: Q04DX003 (ip), vehicle: saline 103 % of control | dose: 400.0 mg/kg/injection, schedule: Q01DX001 (ip), vehicle: acetone 95 % of control | dose: 400.0 mg/kg/injection, schedule: Q01DX009 (ip), vehicle: saline 88 % of control | dose: 400.0 mg/kg/injection, schedule: Q04DX003 (ip), vehicle: saline 98 % of control

CN(CCNC(=O)Nc1ccccc1)c1ccccc1
inactive: [12] 101 % of control | [13] 97 % of control | dose: 400.0 mg/kg/injection, schedule: Q01DX009 (ip), vehicle: Klucel (hydroxypropylcellulose) (HPC) 105 % of control

N#CNN=Nc1cc(Cl)c(Cl)c(Cl)c1
inactive: dose: 12.0 mg/kg/injection, schedule: Q01DX009 (ip), vehicle: saline 101 % of control | dose: 25.0 mg/kg/injection, schedule: Q01DX009 (ip), vehicle: saline 109 % of control | dose: 25.0 mg/kg/injection, schedule: Q04DX003 (ip), vehicle: saline 105 % of control | dose: 50.0 mg/kg/injection, schedule: Q01DX009 (ip), vehicle: saline 97 % of control and 104 % of control | dose: 50.0 mg/kg/injection, schedule: Q04DX003 (ip), vehicle: saline 98 % of control | [11] 91 % of control

CCOC(=O)c1c(-c2ccc(OC)c(OC)c2OCc2ccccc2)c(C)c(C)[nH]c1=O
inactive: dose: 75.0 mg/kg/injection, schedule: Q01DX001 (ip), vehicle: carboxymethylcellulose (CMC) 102 % of control | dose: 150.0 mg/kg/injection, schedule: Q01DX001 (ip), vehicle: carboxymethylcellulose (CMC) 102 % of control | dose: 300.0 mg/kg/injection, schedule: Q01DX001 (ip), vehicle: carboxymethylcellulose (CMC) 102 % of control

CC(C)C(CN=C(N)N)c1cccc2ccccc12 (stereo not drawn)
inactive: dose: 12.5 mg/kg/injection, schedule: Q01DX009 (ip), vehicle: saline with Tween-80 100 % of control | [8] 103 % of control | dose: 25.0 mg/kg/injection, schedule: Q04DX002 (ip), vehicle: saline with Tween-80 100 % of control | [9] 91 % of control | dose: 50.0 mg/kg/injection, schedule: Q04DX002 (ip), vehicle: saline with Tween-80 100 % of control

CC(=O)OC1CC(OC2C(O)CC(OC3C(O)CC(OC4CCC5(C)C(CCC6C5CC(O)C5(C)C(C7=CC(=O)OC7)CCC65O)C4)OC3C)OC2C)OC(C)C1O (stereo not drawn) (tested in a mixture with another compound)
inactive: dose: 100.0 mg/kg/injection, schedule: Q01DX001 (sc), vehicle: steriod suspending solution 97 % of control | dose: 200.0 mg/kg/injection, schedule: Q01DX001 (sc), vehicle: steriod suspending solution 101 % of control

Cc1ccc(C(=O)OCC2OC(OC3CC(OC(=O)c4ccc(C)cc4)C(COC(=O)c4ccc(C)cc4)O3)CC2OC(=O)c2ccc(C)cc2)cc1 (stereo not drawn)
inactive: [1] 101 % of control | [2] 87 % of control | [3] 101 % of control | dose: 400.0 mg/kg/injection, schedule: Q01DX001 (ip), vehicle: carboxymethylcellulose (CMC) 97 % of control

COc1ccc(OC)c(NC(=O)N(CCC#N)C2CCCCC2)c1
inactive: [4] 91 % of control | [5] 91 % of control

O=[N+]([O-])c1cc(Br)c2c(c1)CCN2
inactive: dose: 12.5 mg/kg/injection, schedule: Q01DX005 (ip), vehicle: other 100 % of control | dose: 25.0 mg/kg/injection, schedule: Q01DX005 (ip), vehicle: other 102 % of control | dose: 50.0 mg/kg/injection, schedule: Q01DX005 (ip), vehicle: other 100 % of control | dose: 100.0 mg/kg/injection, schedule: Q01DX005 (ip), vehicle: other 105 % of control | dose: 200.0 mg/kg/injection, schedule: Q01DX005 (ip), vehicle: other 102 % of control

Nc1ccc(S(=O)(=O)CC(=O)N2CCOCC2)cc1
inactive: dose: 100.0 mg/kg/injection, schedule: Q04DX003 (ip), vehicle: saline with Tween-80 100 % of control | dose: 200.0 mg/kg/injection, schedule: Q04DX003 (ip), vehicle: saline with Tween-80 97 % of control | dose: 400.0 mg/kg/injection, schedule: Q04DX003 (ip), vehicle: saline with Tween-80 97 % of control

CN(Cc1ccccc1)Cc1ccccc1
inactive: dose: 50.0 mg/kg/injection, schedule: Q01DX009 (ip), vehicle: Klucel (hydroxypropylcellulose) (HPC) 100 % of control | [12] 100 % of control | [4] 97 % of control | [13] 92 % of control | [5] 97 % of control

CCCCN(C)N=Nc1ccc(CCC(=O)NN)cc1
inactive: dose: 33.0 mg/kg/injection, schedule: Q01DX009 (ip), vehicle: carboxymethylcellulose (CMC) 107 % of control | dose: 50.0 mg/kg/injection, schedule: Q01DX009 (ip), vehicle: carboxymethylcellulose (CMC) 101 % of control

CC(C)CN(CC(C)C)C(=O)CCl
inactive: [2] 106 % of control
